Data: US12083231B2, “Starch-based double-loaded functional nano particle as well as preparation method and application” (Hefei University of Technology, priority 2021, dated 2024)

Experiment: Retention rate of quercetin and anthocyanin during storage for 14 days
Format: physicochemical
Settings: after being stored for 14 days; nanoparticle with EHT:carboxymethyl dextrin mass ratio 1:1
Text: It can be seen from FIG. 8 that quercetin and anthocyanin alone are easy to degrade in the environment, and only about 20% of quercetin and anthocyanin can be retained after being stored for 14 days. […] The significant increase of retention rate proves that the starch-based double-loaded functional colloid nanoparticle can effectively protect quercetin and anthocyanin from being degraded.

Row | Molecule | retention rate of quercetin | retention rate of anthocyanin
1 | O=c1c(O)c(-c2ccc(O)c(O)c2)oc2cc(O)cc(O)c12 [quercetin] | about 20% | 
2 | anthocyanin |  | about 20%
